Source: ChEMBL document CHEMBL1201862, “PubChem BioAssay data set” (2004)
Activity calls are given as the source filed them.

Columns and labels:
Cytochrome P450 3A4 = Cytochrome P450 3A4 (Homo sapiens, UniProt P08684);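 note: CYP3A4 tested as one member of a cytochrome P450 panel screen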
Cytochrome P450 2C9 = Cytochrome P450 2C9 (Homo sapiens, UniProt P11712)
Cytochrome P450 2C19 = Cytochrome P450 2C19 (Homo sapiens, UniProt P33261); experiment: Cytochrome panel assay with activity outcomes. Panel member name: p450-cyp2c19 Compounds with AC50 equal or less than 10 uM are considered active; assay type: functional; details: read-out: AC50
[1] = target: T1, Heat shock factor protein 1 (Mus musculus, UniProt P38532); experiment: HSF1 potentiators in luciferase reporter cells, confirmation, cell-based, NIH3T3, luminescence, dose retest (AID 435004); assay type: functional;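 note: stress induced by proteasome inhibitor MG132 added 30 min after compound; luciferase reporter driven by HSF1 response element in NIH3T3 cells; actives raise luminescence as potentiators of the MG132 stress response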
T1 sequence (P38532 whole entry): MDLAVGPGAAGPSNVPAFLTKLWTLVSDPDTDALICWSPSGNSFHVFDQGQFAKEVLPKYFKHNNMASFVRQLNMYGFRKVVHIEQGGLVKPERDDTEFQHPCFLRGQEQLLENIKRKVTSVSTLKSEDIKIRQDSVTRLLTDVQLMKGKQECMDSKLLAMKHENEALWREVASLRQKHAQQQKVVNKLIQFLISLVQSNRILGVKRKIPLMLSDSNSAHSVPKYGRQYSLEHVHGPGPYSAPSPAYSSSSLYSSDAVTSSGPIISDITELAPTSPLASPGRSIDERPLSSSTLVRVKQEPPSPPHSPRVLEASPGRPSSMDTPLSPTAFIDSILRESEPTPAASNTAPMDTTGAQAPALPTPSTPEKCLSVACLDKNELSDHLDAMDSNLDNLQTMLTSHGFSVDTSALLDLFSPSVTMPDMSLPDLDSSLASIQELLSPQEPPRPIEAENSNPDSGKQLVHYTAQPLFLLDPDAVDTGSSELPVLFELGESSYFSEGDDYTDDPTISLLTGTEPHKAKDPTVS

[2] = microbe, parasite or virus in culture; assay type: functional; details: Mycobacterium tuberculosis
[3] = target: FAD-linked sulfhydryl oxidase ALR (Homo sapiens, UniProt P55789); experiment: inhibitors of human ALR sulfhydryl oxidase, dose response, biochemical, H2O2 detection, luminescence, cherry-pick (AID 493248)
[4] = target: T1, Heat shock factor protein 1; experiment: inhibition of MG132-induced HSE-luciferase signal, confirmation, cell-based, NIH3T3, luminescence, dose retest (AID 2382); assay type: functional;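 note: NIH3T3 fibroblasts with HSF1-driven luciferase reporter stressed by proteasome inhibitor MG132; luminescence from HSF1-driven luciferase expression after 8 hours of MG132 stress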
Cytochrome P450 2D6 = Cytochrome P450 2D6 (Homo sapiens, UniProt P10635);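 note: CYP2D6 member of a cytochrome P450 panel assay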
[5] = inhibitors of intracellular T. cruzi replication, confirmation, NIH3T3 host cells, beta-gal luminescence (AID 2044); assay type: functional, cell-based;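 note: intracellular parasites grown in NIH/3T3 mouse fibroblasts as host cells; luminescent beta-galactosidase reporter signal from transgenic T. cruzi replicating inside host cells; inhibitors lower the luminescence signal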
[6] = cytotoxicity toward NIH3T3 fibroblasts, dose response, counter-screen, cell-based, ATP luminescence, mouse fibroblasts (AID 2010); assay type: functional;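 note: cells exposed to compound for about 90 hours before reading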
[7] = target: T2, Corticotropin-releasing factor receptor 2/Corticotropin-releasing factor-binding protein (Homo sapiens, UniProt P24387+Q13324); experiment: activators of CRF receptor 2 with binding protein – uHTS hits, confirmation (AID 602473); assay type: functional; details: read-out: EC50_Mean
T2 sequence (Q13324 whole entry): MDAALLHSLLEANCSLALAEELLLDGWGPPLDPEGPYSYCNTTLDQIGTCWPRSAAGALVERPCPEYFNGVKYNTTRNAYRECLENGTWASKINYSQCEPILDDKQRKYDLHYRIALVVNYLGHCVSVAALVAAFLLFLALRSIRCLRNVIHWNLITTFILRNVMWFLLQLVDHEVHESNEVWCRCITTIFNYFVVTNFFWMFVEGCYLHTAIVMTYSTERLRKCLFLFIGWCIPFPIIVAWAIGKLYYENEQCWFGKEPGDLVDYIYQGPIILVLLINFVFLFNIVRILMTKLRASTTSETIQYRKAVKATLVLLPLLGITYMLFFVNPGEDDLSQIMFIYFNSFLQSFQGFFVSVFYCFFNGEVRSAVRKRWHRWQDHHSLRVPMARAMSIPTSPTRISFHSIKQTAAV
T2 sequence (P24387 whole entry): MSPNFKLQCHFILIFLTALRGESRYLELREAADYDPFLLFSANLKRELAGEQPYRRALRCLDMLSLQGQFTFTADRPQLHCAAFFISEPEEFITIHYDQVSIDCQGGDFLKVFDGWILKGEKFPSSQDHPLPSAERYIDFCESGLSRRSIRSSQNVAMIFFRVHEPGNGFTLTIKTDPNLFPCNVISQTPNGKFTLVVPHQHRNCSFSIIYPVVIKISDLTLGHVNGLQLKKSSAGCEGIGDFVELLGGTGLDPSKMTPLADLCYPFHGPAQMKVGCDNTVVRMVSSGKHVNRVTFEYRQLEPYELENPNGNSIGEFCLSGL

Sequence of FAD-linked sulfhydryl oxidase ALR (P55789 whole entry): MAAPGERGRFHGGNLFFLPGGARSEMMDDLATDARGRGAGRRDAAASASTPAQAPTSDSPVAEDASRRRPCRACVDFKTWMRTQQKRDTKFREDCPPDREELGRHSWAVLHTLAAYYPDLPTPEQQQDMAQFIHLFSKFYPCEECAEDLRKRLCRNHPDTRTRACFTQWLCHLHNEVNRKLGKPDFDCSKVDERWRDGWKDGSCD
Sequence of Cytochrome P450 2C9 (P11712 whole entry): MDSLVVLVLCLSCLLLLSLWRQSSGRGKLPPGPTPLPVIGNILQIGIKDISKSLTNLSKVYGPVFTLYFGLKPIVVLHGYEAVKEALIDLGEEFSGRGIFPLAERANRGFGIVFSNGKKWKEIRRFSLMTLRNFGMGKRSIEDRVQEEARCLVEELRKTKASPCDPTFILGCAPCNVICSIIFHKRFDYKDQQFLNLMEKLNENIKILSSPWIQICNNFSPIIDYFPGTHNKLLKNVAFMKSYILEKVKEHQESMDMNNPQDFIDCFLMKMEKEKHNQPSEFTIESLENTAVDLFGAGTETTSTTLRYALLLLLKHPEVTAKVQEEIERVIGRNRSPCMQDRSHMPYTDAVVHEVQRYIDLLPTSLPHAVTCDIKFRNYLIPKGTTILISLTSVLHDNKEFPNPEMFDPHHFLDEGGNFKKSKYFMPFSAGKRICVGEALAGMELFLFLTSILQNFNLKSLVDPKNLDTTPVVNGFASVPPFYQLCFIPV
Sequence of Cytochrome P450 2C19 (P33261 whole entry): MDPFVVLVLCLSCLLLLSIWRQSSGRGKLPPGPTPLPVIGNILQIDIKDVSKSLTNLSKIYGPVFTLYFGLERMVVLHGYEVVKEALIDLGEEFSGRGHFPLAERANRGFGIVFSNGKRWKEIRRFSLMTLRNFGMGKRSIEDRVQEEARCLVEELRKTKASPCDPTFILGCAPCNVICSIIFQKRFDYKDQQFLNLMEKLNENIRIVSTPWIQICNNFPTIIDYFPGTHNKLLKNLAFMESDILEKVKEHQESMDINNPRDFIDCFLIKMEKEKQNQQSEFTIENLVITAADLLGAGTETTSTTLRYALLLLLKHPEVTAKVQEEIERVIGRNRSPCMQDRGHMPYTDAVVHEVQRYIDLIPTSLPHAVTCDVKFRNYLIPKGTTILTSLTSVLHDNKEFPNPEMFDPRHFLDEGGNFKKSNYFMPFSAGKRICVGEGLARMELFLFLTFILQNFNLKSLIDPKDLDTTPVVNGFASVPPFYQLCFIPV
Sequence of Cytochrome P450 2D6 (P10635 whole entry): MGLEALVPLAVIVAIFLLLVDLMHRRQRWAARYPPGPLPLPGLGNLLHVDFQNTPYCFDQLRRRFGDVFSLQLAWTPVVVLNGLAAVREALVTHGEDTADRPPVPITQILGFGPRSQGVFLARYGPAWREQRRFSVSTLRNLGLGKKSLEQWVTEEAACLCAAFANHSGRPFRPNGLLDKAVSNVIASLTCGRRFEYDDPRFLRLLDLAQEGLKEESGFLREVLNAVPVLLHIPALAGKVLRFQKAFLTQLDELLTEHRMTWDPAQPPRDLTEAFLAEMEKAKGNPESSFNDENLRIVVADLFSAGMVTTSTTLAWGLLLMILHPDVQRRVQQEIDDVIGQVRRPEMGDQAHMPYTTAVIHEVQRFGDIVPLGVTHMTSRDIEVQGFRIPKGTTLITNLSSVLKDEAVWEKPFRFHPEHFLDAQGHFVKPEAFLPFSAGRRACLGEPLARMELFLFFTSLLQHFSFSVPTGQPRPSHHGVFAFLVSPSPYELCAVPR
Sequence of Cytochrome P450 3A4 (P08684 whole entry): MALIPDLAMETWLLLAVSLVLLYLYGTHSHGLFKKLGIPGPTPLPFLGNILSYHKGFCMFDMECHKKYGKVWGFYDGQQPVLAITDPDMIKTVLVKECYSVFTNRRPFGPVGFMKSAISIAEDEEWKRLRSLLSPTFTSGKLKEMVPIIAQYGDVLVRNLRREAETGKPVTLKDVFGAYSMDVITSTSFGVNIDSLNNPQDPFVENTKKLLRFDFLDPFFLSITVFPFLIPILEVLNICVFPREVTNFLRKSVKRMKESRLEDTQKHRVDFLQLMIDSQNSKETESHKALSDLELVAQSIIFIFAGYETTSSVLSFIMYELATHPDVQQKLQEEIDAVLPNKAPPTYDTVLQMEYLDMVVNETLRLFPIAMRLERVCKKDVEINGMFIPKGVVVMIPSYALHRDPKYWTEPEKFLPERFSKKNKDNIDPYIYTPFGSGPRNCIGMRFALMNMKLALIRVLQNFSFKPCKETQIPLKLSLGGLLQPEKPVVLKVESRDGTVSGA

## CO[C@H]1OC[C@@]2(C)[C@@H]3C4=C(CN2C(=O)OC(C)(C)C)[C@H](C)[C@H](CO)[C@H](CO)[C@H]4CC[C@H]13
Cytochrome P450 3A4
  AC50: 10 µM (inconclusive)
Cytochrome P450 2C9
  AC50: 20 µM (inconclusive)
Cytochrome P450 2C19
  AC50: 39.8 µM (inconclusive)

## O=C(COc1ccc(Cl)cc1)NCCCNC(=O)c1ccccn1
[1]
  EC50: > 260 µM (inactive)

## CCC(=O)c1ccc(OCC(O)CN2CCN(c3cccc(C(F)(F)F)c3)CC2)cc1 (stereo not given)
[2]
  CC50: > 40 µM (active)

## O=C(c1ccco1)N1CCN=C1SCc1cccc(Cl)c1
[3]
  AC50: 18.1 µM (active)

## COc1ccccc1C(CNC(=O)C(C)(C)Oc1ccc(Cl)cc1)N1CCCC1 (stereo not given)
[2]
  CC50: > 40 µM (active)

## O=C(COC(=O)C1CC2C=CC1C2)Nc1ccc2c(c1)OC(F)(F)O2 (stereo not given)
[1]
  EC50: > 260 µM (inactive)

## O=C(NCc1ccncc1)C(=O)Nc1nc(C23CC4CC(CC(C4)C2)C3)cs1
[4]
  EC50: > 195 µM (not active)

## Cc1ccc(/C=N\NC(=O)Cc2noc3ccccc23)cc1
[4]
  EC50: > 195 µM (not active)

## CCCCN1C(=O)CN(CCc2ccccc2)C(=O)C1c1ccc(OC)cc1 (stereo not given)
Cytochrome P450 2C9
  AC50: 20 µM (inconclusive)
Cytochrome P450 2D6
  AC50: 39.8 µM (inconclusive)

## CNC(=O)N(O)C1N(/N=C/c2c(F)cccc2Cl)C(=S)SC1(C)C (stereo not given)
[1]
  EC50: > 260 µM (inactive)

## COc1cccc(N/C([S-])=C(/C(=O)c2cc(C)n(-c3ccccc3F)c2C)[n+]2ccc(N(C)C)cc2)c1
[5]
  EC50: 0.645 µM (active)
[2]
  CC50: > 40 µM (active)
[6]
  EC50: > 60 µM (not active)

## c1coc(CN2CCN(C(c3cccs3)c3nnnn3C3CCCC3)CC2)c1 (stereo not given)
Cytochrome P450 2C9
  AC50: 31.6 µM (inconclusive)

## CCOc1cc(-c2c(C#N)c(O)nc3c2c(C)nn3-c2ccc(F)cc2)ccc1O
[2]
  CC50: > 40 µM (active)

## CCC(=O)N(C)CCc1cc2c(c(OC)c1/C=N/Nc1ccc(C(=O)O)cc1)OCO2
[3]
  AC50: 3.56 µM (active)

## CSCCC1NC(=O)N(CC(=O)N2N=C(c3ccc(Cl)cc3)CC2c2ccco2)C1=O (stereo not given)
[2]
  CC50: > 40 µM (active)

## COc1ccc(OC)c(NC(=O)CSCC(=O)O)c1
[4]
  EC50: > 195 µM (not active)

## COC(=O)c1c(C)[nH]c(O)c1/C=N/c1ccc(C(C)C)cc1
Cytochrome P450 3A4
  AC50: 28.2 µM (inconclusive)
[7]
  EC50: > 53 µM (inactive)
Cytochrome P450 2C9
  AC50: 28.2 µM (inconclusive)
[5]
  EC50: 4.19 µM (active)
[6]
  EC50: > 60 µM (inconclusive)
Cytochrome P450 2C19
  AC50: 25.1 µM (inconclusive)

## CCN(CC)C(=S)SCC(=O)Nc1nc(=O)c2ccccc2s1
[4]
  EC50: > 195 µM (not active)

## Oc1[nH]c2ccccc2c1C1=NCCCC1
[3]
  AC50: 0.325 µM (active)

## COc1cc(/C=N/NC(=O)c2ccc(CSc3nncn3C)cc2)cc(OC)c1O
[3]
  AC50: 2.25 µM (active)

## Cc1ccc(NC(=NO)c2nonc2N)cc1
[3]
  AC50: 19.3 µM (active)

## COc1ccc(NC(C)C(=O)Nc2ccc(C(C)(C)C)cc2)cc1Cl (stereo not given)
[2]
  CC50: > 40 µM (active)

## CCCCn1cc(S(=O)(=O)c2ccccc2)c(=O)c2cc(C)ccc21
[4]
  EC50: > 195 µM (not active)

## CSc1ccc(C#N)cc1NC(=O)c1cccc(Cl)c1
Cytochrome P450 2C9
  AC50: 39.8 µM (inconclusive)
Cytochrome P450 2D6
  AC50: 10 µM (inconclusive)
